Test results as given in patent publication US20260248769A1, “URINATION DISORDER-A[…]” (priority 2023, published 2026).

Columns and labels:
[1] = system: partial BOO rats exhibiting overactive bladder; experiment: Cystometry in partial bladder outlet obstruction (BOO) rats: voiding interval and frequency of NVC; format: in vivo, rat; conditions: for voiding interval, effect of a single agent: up to 2 hours, distigmine 0.1 mg/kg s.c., acotiamide 100 and 200 mg/kg s.c., mirabegron 3 mg/kg i.v. (FIG. 14); for NVC frequency compared with the β3 agonist single administration group: co-administered with mirabegron 3 mg/kg i.v., distigmine 0.1 mg/kg or acotiamide 200 mg/kg s.c. (FIG. 15)
Description: Under isoflurane anesthesia, female rats (strain: Crl:CD (SD), 6 weeks old, Jackson Laboratory Japan, Inc.) were subjected to bladder outlet obstruction surgery to prepare partial bladder outlet obstruction (BOO) rats. The sham-operated group was operated similarly except for the partial BOO. Six weeks after surgery, cystometry was performed while awake. A polyethylene catheter (Becton Dickinson: PE50) for cystometry was inserted into and indwellingly placed in the bladder. The catheter indwelling in the bladder was connected to a pressure transducer (Nihon Kohden Corporation) to measure the intravesical pressure. Physiological saline was injected into the bladder using a syringe pump and changes in intravesical pressure were recorded in PowerLab (ADInstruments).
Distigmine (0.1 mg/kg), acotiamide (100 and 200 mg/kg) or vehicle was subcutaneously administered (5 ml/kg), or a β3-adrenergic receptor agonist (β3 agonist mirabegron, a therapeutic agent for overactive bladder) (3 mg/kg) was intravenously administered (1 mL/kg), and the voiding interval was measured for up to 2 hours.
The β3 agonist mirabegron (3 mg/kg, intravenous administration [1 mL/kg]) was co-administered with distigmine (0.1 mg/kg) or acotiamide (200 mg/kg) by subcutaneous administration (5 mL/kg), and the frequency of NVC was measured.

[2] = system: bladder of normal rats; experiment: Cystometry (detrusor muscle contraction pressure measurement) in normal rats; format: in vivo; conditions: normal male rats, subcutaneous; for bladder contraction pressure during voiding / maximum contraction pressure during voiding: 0 to 90 minutes after administration, acotiamide 30 to 200 mg/kg; for bladder contraction pressure during voiding: distigmine 0.01 to 0.1 mg/kg (FIG. 3); for maximum contraction pressure during voiding: distigmine 0.01 to 0.1 mg/kg (FIG. 4); for bladder compliance: 0 to 90 minutes, acotiamide up to 200 mg/kg, distigmine 0.01 to 0.1 mg/kg (FIG. 6); for tolerability in the cystometry test at the highest dose: highest dose acotiamide 200 mg/kg, distigmine 0.3 mg/kg
Description: A polyethylene catheter (PE50) for cystometry was inserted into and indwellingly placed in the bladder of male rats (strain: Crl:CD (SD), 8 weeks old, Jackson Laboratory Japan, Inc.). The catheter indwelling in the bladder was connected to a pressure transducer (Nihon Kohden Corporation) to measure the intravesical pressure. Physiological saline was injected into the bladder using an infusion pump, and changes in intravesical pressure were recorded on a polygraph system (RMT-1000, Nihon Kohden Corporation) and an analysis system (Lab Chart Pro, ADInstruments). Changes in detrusor muscle contraction pressure when distigmine (0.01 to 0.3 mg/kg), acotiamide (3 to 200 mg/kg), or vehicle was subcutaneously administered (5 ml/kg) were measured for 90 minutes.

[3] = system: normal rats; experiment: Uroflowmetry (urine flow rate measurement) in normal rats; format: in vivo, rat; conditions: normal male rats, subcutaneous, measured for 12 hours; acotiamide 30, 100, 200 mg/kg, distigmine 0.1 mg/kg (FIG. 5)
Description: Changes in urine flow rate when distigmine (0.1 mg/kg), acotiamide (30, 100, and 200 mg/kg) or vehicle was subcutaneously administered (5 mL/kg) to male rats (strain: Crl:CD (SD), 8 weeks old, Jackson Laboratory Japan, Inc.) were measured for 12 hours. Changes in urine flow rate were recorded using PowerLab (ADInstruments) by placing a digital balance under the voiding measurement cage to cumulatively collect excreted urine in a container on the balance and measure the change in weight.

[4] = system: female rats under urethane anesthesia; experiment: Test for confirming tolerability: induction of cholinergic crisis; format: in vivo, rat; conditions: up to 120 minutes; for induction of cholinergic crisis (hypersecretion, respiratory abnormalities): urethane anesthesia, subcutaneous, distigmine 0.1-0.4 mg/kg, acotiamide 200 and 300 mg/kg
[5] = system: urethra of normal rats; experiment: Measurement of LPP (urethral pressure) in normal rats; format: in vivo, rat; conditions: spinal cord transected female rats, subcutaneous; acotiamide 30 to 300 mg/kg, distigmine 0.1 mg/kg, bethanechol 3 mg/kg (FIG. 7)
Description: Using female rats (strain: Crl:CD (SD), 9 weeks old, Jackson Laboratory Japan, Inc.), under isoflurane anesthesia, the spinal cord was transected at the Th8 vertebra, and after ligating and excising the ureters, a catheter (Becton Dickinson: PE-90, PE-50) was inserted and fixed at the bladder dome to prepare the measurement animal. Physiological saline was injected from the catheter, and the maximum intravesical pressure (leak point pressure (LPP)) when leaking from the external urethral opening was recorded by PowerLab (ADInstruments). Changes in leak point pressure when distigmine (0.1 mg/kg), bethanechol (3 mg/kg), acotiamide (30 to 300 mg/kg), or a vehicle was subcutaneously administered (5 mL/kg) were measured.

[6] = system: bladder of normal guinea pigs; experiment: Cystometry and urine flow rate measurement in normal guinea pigs; format: in vivo, guinea pig; conditions: male guinea pigs, intravenous, 0 to 30 minutes, acotiamide 0.1 to 10 mg/kg; for bladder contraction pressure during voiding: distigmine 1 mg/kg (FIG. 8); for maximum contraction pressure during voiding: distigmine 1 mg/kg (FIG. 9); for urine flow rate (maximum urine flow rate and average urine flow rate): distigmine 1 mg/kg (FIG. 10, FIG. 11)
Description: A polyethylene catheter (Becton Dickinson: PE50) was inserted into and fixed to the bladder of a guinea pig (male, strain: Slc: Hartley, 7 weeks old, Japan SLC, Inc.). A catheter indwellingly placed in the bladder was connected to a pressure transducer to measure intravesical pressure. Physiological saline was injected into the bladder using an infusion pump and intravesical pressure was recorded in PowerLab (ADInstruments). The urine flow rate was recorded in PowerLab (ADInstruments) by placing a digital balance under the cage to cumulatively collect excreted urine in a container on the balance and measure the change in weight. Changes in the detrusor muscle contraction pressure and the urine flow rate when distigmine (1 mg/kg), acotiamide (0.1 to 10 mg/kg), or a vehicle was intravenously administered (1 mL/kg) were measured for 30 minutes.

[7] = system: pelvic nerve crush (PNC) rats; experiment: Cystometry in underactive bladder model (pelvic nerve crush, PNC) rats; format: in vivo, rat; conditions: PNC female rats, subcutaneous; for detrusor muscle contraction pressure: awake, measured for 60 minutes, acotiamide 30 to 200 mg/kg, distigmine 0.1 mg/kg (FIG. 12); for drug tolerability at the highest dose: highest dose acotiamide 200 mg/kg, distigmine 0.3 mg/kg
Description: Under isoflurane anesthesia, female rats (strain: Crl:CD (SD), 8 weeks old, Jackson Laboratory Japan, Inc.) were subjected to pelvic nerve injury surgery to prepare pelvic nerve crush (PNC) rats. Cystometry was performed while awake, 2 to 4 weeks after surgery. A polyethylene catheter (PE50) for cystometry was inserted into the bladder and indwellingly placed. The catheter indwelling in the bladder was connected to a pressure transducer (Nihon Kohden Corporation) to measure the intravesical pressure. Physiological saline was injected into the bladder using an infusion pump, and changes in intravesical pressure were recorded in a polygraph system (RMT-1000, Nihon Kohden Corporation) (RMT-1000 MG, Miyuki Giken Co., Ltd.) and an analysis system (Lab Chart Pro, ADInstruments).
Changes in detrusor muscle contraction pressure when distigmine (0.01 to 0.3 mg/kg), acotiamide (3 to 200 mg/kg), or vehicle was subcutaneously administered (5 mL/kg) to PNC rats were measured for 60 minutes.

[8] = system: bladder M3 receptor (Chrm3); experiment: Bladder M3 receptor expression (real-time PCR Chrm3, Western blotting CHRM3) after repeated administration; format: in vivo, rat; conditions: subcutaneous twice daily for two weeks; for Relative gene expression of Chrm3 (Mean ± SE): bladder of normal male rats, real-time PCR, acotiamide 200 mg/kg/day, distigmine 0.2 mg/kg/day; for expression level of the bladder M3 receptor after repeated administration: normal male rats, acotiamide 100 mg/kg, distigmine 0.1 mg/kg per dose (Table 1, FIG. 13)
Description: Distigmine (0.1 mg/kg), acotiamide (100 mg/kg), or vehicle was subcutaneously administered twice daily for two weeks (5 mL/kg per dose) to normal rats (male, strain: Crl:CD (SD), 8 weeks old, Jackson Laboratory Japan, Inc.), and the bladder was collected. The M3 receptor expression level in the collected bladder was examined by gene quantitative analysis by real-time PCR (Chrm3) and protein expression analysis by Western blotting (CHRM3).

[9] = system: patients with underactive bladder; conditions: in combination with an α1-receptor blocker, cited from earlier work

Row | Structure (SMILES) | voiding interval, effect of a single agent [1] | bladder contraction pressure during voiding [2] | maximum contraction pressure during voiding [2] | bladder compliance [2] | tolerability in the cystometry test at the highest dose [2] | urine flow rate [3] | induction of cholinergic crisis (hypersecretion, respiratory abnormalities) [4] | leak point pressure (urethral pressure) [5] | bladder contraction pressure during voiding [6] | maximum contraction pressure during voiding [6] | urine flow rate (maximum urine flow rate and average urine flow rate) [6] | detrusor muscle contraction pressure [7] | drug tolerability at the highest dose [7] | Relative gene expression of Chrm3 (Mean ± SE) [8] | expression level of the bladder M3 receptor after repeated administration [8] | NVC frequency compared with the β3 agonist single administration group [1] | also measured
1 | Nc1nc(CC(=O)Nc2ccc(CCNC[C@H](O)c3ccccc3)cc2)cs1 [mirabegron] | had no effect | – | – | – | – | – | – | – | – | – | – | – | – | – | – | – | –
2 | COc1cc(O)c(C(=O)Nc2nc(C(=O)NCCN(C(C)C)C(C)C)cs2)cc1OC [Acotiamide, N-[2-[bis(1-methylethyl)amino]ethyl]-2-[(2-hydroxy-4,5-dimethoxybenzoyl)amino]thiazole-4-carboxamide] | had no effect | increased | increased | did not affect | well tolerated | increasing | did not induce | did not change | increased | increased | increasing | increased | good tolerability | 107.0 ± 12.9 | did not reduce | similar | action on bladder contraction pressure, 200 mg/kg group compared with 30 and 100 mg/kg groups ([2]; 200 mg/kg): extremely strong; death cases ([4]; 200 and 300 mg/kg subcutaneous): no death cases; action on the detrusor muscle contraction pressure, 200 mg/kg group compared with 30 and 100 mg/kg groups ([7]; 200 mg/kg): extremely strong; decrease in residual urine volume ([9]; 100 mg orally 3 times a day for 2 weeks): a sufficient decrease in residual urine volume was not obtained; mean value of residual urine volume after administration ([9]; 100 mg orally three times a day for two weeks): ≥ 100 mL
3 | CC(C[N+](C)(C)C)OC(N)=O (stereo not drawn) [bethanechol] | – | – | – | – | – | – | – | increase | – | – | – | – | – | – | – | – | –
4 | CN(CCCCCCN(C)C(=O)Oc1ccc[n+](C)c1)C(=O)Oc1ccc[n+](C)c1 [Distigmine] | significantly shortened | increased | increased | significantly reduced | induced cholinergic crisis | decreased | induced | did not change | increased | increased | decreased | increased | cholinergic crisis | 79.1 ± 11.8 | reduced | increased | death (animals) ([4]; 0.2 mg/kg subcutaneous): 1 out of 3; death (animals) ([4]; 0.3 mg/kg subcutaneous): 5 out of 6; death (animals) ([4]; 0.4 mg/kg subcutaneous): 3 out of 3
